The values below come from patent EP0117412A1, “Propene derivatives and their use as plant growth inhibitors” (DAICEL CHEMICAL INDUSTRIES, LTD., priority 1983, dated 1984).

What all share (experiment): Test of plant growth inhibiting action on sprouted seeds grown 7 days in a dispersion of wettable powder, visual evaluation
Common to all, as to type: in vivo

For one assay, the system named is Oryza sativa. To be noted: 168 h, 20% wettable powder dispersed in water, 25°C, lighted thermostat, visual grade 1-5, read-out: Growth Inhibition, Seed of Plant Oryza sativa (converted); for inhibition at 20 ppm: Concentration 20 ppm; for inhibition at 100 ppm: Concentration 100 ppm. The text has this: (§1) Test Example (Test of Plant Growth Inhibiting Action)
(§2) 50 parts of talc, 25 parts of bentonite, 2 parts of Sorpol-9047 (surface active agent manufactured by Toho Chemical Co., Ltd.) and 3 parts of Sorpol-5039 (same as above) were thoroughly mixed to form a carrier. 50 weight parts of test compound was mixed with 200 weight parts of the carrier to prepare a 20% wettable powder. The wettable powder was dispersed in pure water to adjust the amount thereof to a definite concentration (see Table If to 17). Seeds of Oryza sativa or rice plant, Echinochloa crus-galli (a kind of millet) and Raphanus sativus (a kind of radish) all of which were forcedly sprouted in a separate dish, were put in the dispersion of wettable powder and grown for 7 days in a lighted thermostat at 25°C and the degree of growth was visually evaluated in accordance with the standard set forth below.
(§3) Standard of Evaluation in Growth Inhibition
(§4) • no influence: 1 • about 25% growth inhibition: 2 • about 50% growth inhibition: 3 • about 75% growth inhibition: 4 • about 100% growth inhibition: 5

A further assay concerns Raphanus sativus. To be noted: 168 h, 20% wettable powder dispersed in water, 25°C, lighted thermostat, visual grade 1-5, read-out: Growth Inhibition, Seed of Plant Raphanus sativus (converted); for inhibition at 20 ppm: Concentration 20 ppm; for inhibition at 100 ppm: Concentration 100 ppm.
Source text: as §1, §2, §3, §4

The next assay has as its system Echinochloa crus-galli. The conditions noted are these: 168 h, 20% wettable powder dispersed in water, 25°C, lighted thermostat, visual grade 1-5, read-out: Growth Inhibition, Seed of Plant Echinochloa crus-galli (converted); for inhibition at 20 ppm: Concentration 20 ppm; for inhibition at 100 ppm: Concentration 100 ppm.
Source text: as §1, §2, §3, §4

On to `C=C(CSc1ccccc1)C(=O)OC` [Compound 4-1, methyl 2-methylene-3-(phenylthio)propionate], for which the inhibition – broadly, the share of the control response that was lost under treatment – at 20 ppm was 100% in the assay on Oryza sativa, 0% with Raphanus sativus and 100% in the assay with Echinochloa crus-galli. Moreover, the values for the inhibition at 100 ppm with Oryza sativa, with Raphanus sativus and with Echinochloa crus-galli were 100%, 25% and 100%, respectively.

Consider `C=C(CSc1ccc(Cl)cc1)C(=O)OC` [Compound 4-2, methyl 2-methylene-3-(4-chlorophenyl-thio)propionate], for which the inhibition at 20 ppm in the assay with Oryza sativa is 100%; in the assay on Raphanus sativus, 0%; with Echinochloa crus-galli, 100%. Further, the results for the inhibition at 100 ppm with Oryza sativa, in the assay with Raphanus sativus and in the assay on Echinochloa crus-galli were 100%, 25% and 100%, respectively.

With `C=C(CSc1ccc(C)cc1)C(=O)OC` [Compound 4-3], the results for the inhibition at 20 ppm in the assay with Oryza sativa, with Raphanus sativus and in the assay on Echinochloa crus-galli were 75%, 0% and 100%, respectively. For the same molecule, the results for the inhibition at 100 ppm in the assay on Oryza sativa, in the assay on Raphanus sativus and with Echinochloa crus-galli were 100%, 0% and 100%, respectively.

`C=C(CSc1ccc(OC)cc1)C(=O)OC` [Compound 4-4]: the inhibition at 20 ppm in the assay on Oryza sativa is 100%; with Raphanus sativus, 0%; with Echinochloa crus-galli, 100%. Besides, the inhibition at 100 ppm is 100% in the assay on Oryza sativa, 25% in the assay on Raphanus sativus and 100% in the assay on Echinochloa crus-galli.

As for `C=C(CSc1ccc2ccccc2c1)C(=O)OC` [Compound 4-5], the inhibition at 20 ppm with Oryza sativa was 75%; with Raphanus sativus, 0%; in the assay on Echinochloa crus-galli, 100%. Besides, the inhibition at 100 ppm in the assay on Oryza sativa is 100%; in the assay with Raphanus sativus it was 0%; in the assay on Echinochloa crus-galli, 100%.

In the case of `C=C(CSCc1ccccc1)C(=O)OC` [Compound 4-6], the inhibition at 20 ppm with Oryza sativa was 100%; with Raphanus sativus, 0%; with Echinochloa crus-galli it was 100%. The inhibition at 100 ppm with Oryza sativa was 100%; in the assay with Raphanus sativus, 25%; with Echinochloa crus-galli, 100%.

On to `C=C(CSC1CCCCC1)C(=O)OC` [Compound 4-7], for which the inhibition at 20 ppm in the assay on Oryza sativa is 0%; with Raphanus sativus, 0%; with Echinochloa crus-galli, 75%. Besides, the inhibition at 100 ppm is 100% in the assay on Oryza sativa, 0% in the assay with Raphanus sativus and 100% in the assay with Echinochloa crus-galli.

As to `C=C(CSc1ccccn1)C(=O)OC` [Compound 4-8], the inhibition at 20 ppm in the assay with Oryza sativa, in the assay with Raphanus sativus and in the assay with Echinochloa crus-galli was 0% throughout. For the same molecule, the inhibition at 100 ppm in the assay on Oryza sativa was 50%; in the assay on Raphanus sativus it was 0%; in the assay on Echinochloa crus-galli, 25%.

For the molecule `C=C(CSCc1ccc(Cl)cc1)C(=O)OC` [Compound 4-9], the inhibition at 20 ppm is 100% in the assay with Oryza sativa, 0% in the assay on Raphanus sativus and 100% with Echinochloa crus-galli. The results for the inhibition at 100 ppm in the assay with Oryza sativa, in the assay on Raphanus sativus and in the assay with Echinochloa crus-galli were 100%, 50% and 100%, respectively.

As to `C=C(COc1ccccc1)C(=O)OC` [Compound 4-10, methyl 2-methylene-3-phenoxypropionate], the figures for the inhibition at 20 ppm in the assay with Oryza sativa, in the assay on Raphanus sativus and with Echinochloa crus-galli were 75%, 0% and 100%, respectively. Further, the inhibition at 100 ppm in the assay with Oryza sativa, with Raphanus sativus and in the assay with Echinochloa crus-galli was 100% each time.

In the case of `C=C(COc1ccc(Cl)cc1C)C(=O)OC` [Compound 4-11], the inhibition at 20 ppm was 75% in the assay with Oryza sativa, 0% in the assay with Raphanus sativus and 100% in the assay with Echinochloa crus-galli. Further, the figures for the inhibition at 100 ppm in the assay with Oryza sativa, in the assay on Raphanus sativus and in the assay with Echinochloa crus-galli were 100%, 25% and 100%, respectively.

Consider `C=C(COc1ccc(Cl)cc1Cl)C(=O)OC` [Compound 4-12], for which the inhibition at 20 ppm in the assay on Oryza sativa was 75%; with Raphanus sativus, 0%; in the assay with Echinochloa crus-galli, 100%. The inhibition at 100 ppm in the assay on Oryza sativa was 100%; in the assay with Raphanus sativus, 0%; in the assay with Echinochloa crus-galli, 100%.

Regarding `C=C(COc1ccc(-c2ccccc2)cc1)C(=O)OC` [Compound 4-13], the inhibition at 20 ppm is 0% with Oryza sativa, 0% with Raphanus sativus and 25% in the assay with Echinochloa crus-galli. The values for the inhibition at 100 ppm in the assay with Oryza sativa, in the assay on Raphanus sativus and in the assay on Echinochloa crus-galli were 0%, 0% and 25%, respectively.

Turning to `C=C(COc1cccc(Cl)c1)C(=O)OC` [Compound 4-14], the inhibition at 20 ppm was 100% in the assay with Oryza sativa, 25% with Raphanus sativus and 100% in the assay on Echinochloa crus-galli. The inhibition at 100 ppm was 100% with Oryza sativa, 75% in the assay with Raphanus sativus and 100% with Echinochloa crus-galli.

As to `C=C(COc1ccc(F)cc1)C(=O)OC` [Compound 4-15, methyl 2-methylene-3-(4-fluorophenoxy)propionate], the inhibition at 20 ppm in the assay on Oryza sativa is 50%; in the assay with Raphanus sativus it was 0%; in the assay on Echinochloa crus-galli it was 75%. Also, the figures for the inhibition at 100 ppm in the assay with Oryza sativa, in the assay on Raphanus sativus and in the assay on Echinochloa crus-galli were 100%, 50% and 100%, respectively.

As to `C=C(COc1cccc(C)c1)C(=O)OC` [Compound 4-16], the values for the inhibition at 20 ppm with Oryza sativa, in the assay with Raphanus sativus and in the assay on Echinochloa crus-galli were 75%, 0% and 100%, respectively. In addition, the inhibition at 100 ppm with Oryza sativa was 100%; in the assay on Raphanus sativus, 25%; in the assay with Echinochloa crus-galli, 100%.

As to `C=C(COc1cccc2c1CCCC2)C(=O)OC` [Compound 4-17], the inhibition at 20 ppm in the assay with Oryza sativa was 75%; in the assay on Raphanus sativus it was 0%; in the assay on Echinochloa crus-galli, 100%. Besides, the inhibition at 100 ppm in the assay with Oryza sativa is 100%; with Raphanus sativus, 0%; in the assay on Echinochloa crus-galli it was 100%.

Take `C=C(COc1ccc(C)cc1)C(=O)OC` [Compound 4-18]: the inhibition at 20 ppm in the assay with Oryza sativa is 75%; in the assay with Raphanus sativus, 25%; with Echinochloa crus-galli, 100%. The inhibition at 100 ppm with Oryza sativa, in the assay on Raphanus sativus and with Echinochloa crus-galli was 100% each time.

Consider `C=C(COc1ccc(SC)cc1)C(=O)OC` [Compound 4-19], for which the inhibition at 20 ppm in the assay on Oryza sativa is 100%; in the assay with Raphanus sativus it was 0%; with Echinochloa crus-galli, 100%. The inhibition at 100 ppm in the assay with Oryza sativa is 100%; with Raphanus sativus, 50%; in the assay on Echinochloa crus-galli, 100%.

With `C=C(COc1ccc(OC)cc1)C(=O)OC` [Compound 4-20], the inhibition at 20 ppm with Oryza sativa is 100%; in the assay on Raphanus sativus, 0%; in the assay with Echinochloa crus-galli, 100%. The inhibition at 100 ppm was 100% in the assay on Oryza sativa, 0% with Raphanus sativus and 100% in the assay with Echinochloa crus-galli.

As for `C=C(COc1ccc(C(F)(F)F)cc1)C(=O)OC` [Compound 4-21], the inhibition at 20 ppm in the assay with Oryza sativa was 0%; with Raphanus sativus it was 25%; with Echinochloa crus-galli it was 0%. The inhibition at 100 ppm with Oryza sativa is 100%; with Raphanus sativus it was 25%; with Echinochloa crus-galli it was 100%.

With `C=C(COc1ccc(C#N)cc1)C(=O)OC` [Compound 4-22], the inhibition at 20 ppm was 100% in the assay with Oryza sativa, 50% in the assay on Raphanus sativus and 100% in the assay with Echinochloa crus-galli. Besides, the inhibition at 100 ppm with Oryza sativa, with Raphanus sativus and with Echinochloa crus-galli was 100% in each case.

For `C=C(COc1ccc2c(C)cc(=O)oc2c1)C(=O)OC` [Compound 4-25], the inhibition at 20 ppm in the assay with Oryza sativa was 25%; with Raphanus sativus it was 0%; with Echinochloa crus-galli, 75%. The inhibition at 100 ppm is 100% with Oryza sativa, 25% with Raphanus sativus and 100% in the assay on Echinochloa crus-galli.

For `C=C(CON(CC)CC)C(=O)OC` [Compound 4-26], the inhibition at 20 ppm with Oryza sativa, with Raphanus sativus and with Echinochloa crus-galli was 0% each time. Moreover, the results for the inhibition at 100 ppm with Oryza sativa, with Raphanus sativus and in the assay with Echinochloa crus-galli were 50%, 0% and 25%, respectively.

As for `C=C(COc1cccc2ncccc12)C(=O)OC` [Compound 4-27], the results for the inhibition at 20 ppm in the assay with Oryza sativa, in the assay with Raphanus sativus and with Echinochloa crus-galli were 75%, 0% and 100%, respectively. In addition, the values for the inhibition at 100 ppm in the assay with Oryza sativa, in the assay with Raphanus sativus and with Echinochloa crus-galli were 100%, 50% and 100%, respectively.
